Measurements published in patent publication US20240415914A1, “Water Dispersible Cannabinoid Compositions” (priority 2021, published 2024).
Read-outs that look alike come from different tables or passages of the source.

Key:
[1] = Stability of cannabinoid and Vitamin E components of Beverage 2 (AB Red) stored at 8° C. and 21-25° C., LCMSMS over 570 days
Experimental: The LCMSMS was calibrated for 0-50 ng/ml cannabinoids with the same resin material used in the preparation of the concentrates. At each time period, 100 μml of beverage was diluted with 10 ml of methanol and injected into the LCMSMS for analysis.

[2] = assay type: physicochemical; details: stored at room temperature (21-25° C.)
Experimental: At each time period, 0.05 g of powder was dissolved in 10 ml-15 of ethanol, diluted to fall within the analytical range, and injected into the LCMSMS for analysis.

Cc1c(C)c2c(c(C)c1O)CC[C@@](C)(CCC[C@H](C)CCC[C@H](C)CCCC(C)C)O2 [α-Tocopherol]
Stability of Vitamin Es in AB Red ([1]; 8° C., 0 days): 25.3 µg/mL
Stability of Vitamin Es in AB Red ([1]; 8° C., 1 days): 25.2 µg/mL
Stability of Vitamin Es in AB Red ([1]; 8° C., 2 days): 24.9 µg/mL
Stability of Vitamin Es in AB Red ([1]; 8° C., 3 days): 25.3 µg/mL
Stability of Vitamin Es in AB Red ([1]; 8° C., 5 days): 24.2 µg/mL
Stability of Vitamin Es in AB Red ([1]; 8° C., 8 days): 23.7 µg/mL
Stability of Vitamin Es in AB Red ([1]; 8° C., 9 days): 24.6 µg/mL
Stability of Vitamin Es in AB Red ([1]; 8° C., 10 days): 24.9 µg/mL
Stability of Vitamin Es in AB Red ([1]; 8° C., 11 days): 23.9 µg/mL
Stability of Vitamin Es in AB Red ([1]; 8° C., 12 days): 24.4 µg/mL
Stability of Vitamin Es in AB Red ([1]; 8° C., 15 days): 25.6 µg/mL
Stability of Vitamin Es in AB Red ([1]; 8° C., 16 days): 24.5 µg/mL
Stability of Vitamin Es in AB Red ([1]; 8° C., 17 days): 23.6 µg/mL
Stability of Vitamin Es in AB Red ([1]; 8° C., 18 days): 24.1 µg/mL
Stability of Vitamin Es in AB Red ([1]; 8° C., 19 days): 24.0 µg/mL
Stability of Vitamin Es in AB Red ([1]; 8° C., 22 days): 25.0 µg/mL
Stability of Vitamin Es in AB Red ([1]; 8° C., 23 days): 23.2 µg/mL
Stability of Vitamin Es in AB Red ([1]; 8° C., 24 days): 24.3 µg/mL
Stability of Vitamin Es in AB Red ([1]; 8° C., 25 days): 23.6 µg/mL
Stability of Vitamin Es in AB Red ([1]; 8° C., 26 days): 25.2 µg/mL
Stability of Vitamin Es in AB Red ([1]; 8° C., 29 days): 23.5 µg/mL
Stability of Vitamin Es in AB Red ([1]; 8° C., 30 days): 24.2 µg/mL
Stability of Vitamin Es in AB Red ([1]; 8° C., 60 days): 24.2 µg/mL
Stability of Vitamin Es in AB Red ([1]; 8° C., 90 days): 23.1 µg/mL
Stability of Vitamin Es in AB Red ([1]; 8° C., 120 days): 25.2 µg/mL
Stability of Vitamin Es in AB Red ([1]; 8° C., 150 days): 25.4 µg/mL
Stability of Vitamin Es in AB Red ([1]; 8° C., 180 days): 23.6 µg/mL
Stability of Vitamin Es in AB Red ([1]; 8° C., 210 days): 23.5 µg/mL
Stability of Vitamin Es in AB Red ([1]; 8° C., 240 days): 23.6 µg/mL
Stability of Vitamin Es in AB Red ([1]; 8° C., 270 days): 23.6 µg/mL
Stability of Vitamin Es in AB Red ([1]; 8° C., 300 days): 23.1 µg/mL
Stability of Vitamin Es in AB Red ([1]; 8° C., 330 days): 22.9 µg/mL
Stability of Vitamin Es in AB Red ([1]; 8° C., 390 days): 23.1 µg/mL
Stability of Vitamin Es in AB Red ([1]; 8° C., 420 days): 22.3 µg/mL
Stability of Vitamin Es in AB Red ([1]; 8° C., 450 days): 22.7 µg/mL
Stability of Vitamin Es in AB Red ([1]; 8° C., 480 days): 21.8 µg/mL
Stability of Vitamin Es in AB Red ([1]; 8° C., 510 days): 22.0 µg/mL
Stability of Vitamin Es in AB Red ([1]; 8° C., 540 days): 21.8 µg/mL
Stability of Vitamin Es in AB Red ([1]; 8° C., 570 days): 21.5 µg/mL
Stability of Vitamin Es in AB Red ([1]; 21-25° C., 0 days): 25.3 µg/mL
Stability of Vitamin Es in AB Red ([1]; 21-25° C., 1 days): 24.4 µg/mL
Stability of Vitamin Es in AB Red ([1]; 21-25° C., 2 days): 24.1 µg/mL
Stability of Vitamin Es in AB Red ([1]; 21-25° C., 3 days): 23.8 µg/mL
Stability of Vitamin Es in AB Red ([1]; 21-25° C., 5 days): 22.9 µg/mL
Stability of Vitamin Es in AB Red ([1]; 21-25° C., 8 days): 24.5 µg/mL
Stability of Vitamin Es in AB Red ([1]; 21-25° C., 9 days): 23.3 µg/mL
Stability of Vitamin Es in AB Red ([1]; 21-25° C., 10 days): 23.0 µg/mL
Stability of Vitamin Es in AB Red ([1]; 21-25° C., 11 days): 24.4 µg/mL
Stability of Vitamin Es in AB Red ([1]; 21-25° C., 12 days): 23.4 µg/mL
Stability of Vitamin Es in AB Red ([1]; 21-25° C., 15 days): 24.8 µg/mL
Stability of Vitamin Es in AB Red ([1]; 21-25° C., 16 days): 25.1 µg/mL
Stability of Vitamin Es in AB Red ([1]; 21-25° C., 17 days): 24.4 µg/mL
Stability of Vitamin Es in AB Red ([1]; 21-25° C., 18 days): 24.9 µg/mL
Stability of Vitamin Es in AB Red ([1]; 21-25° C., 19 days): 25.4 µg/mL
Stability of Vitamin Es in AB Red ([1]; 21-25° C., 22 days): 25.4 µg/mL
Stability of Vitamin Es in AB Red ([1]; 21-25° C., 23 days): 24.6 µg/mL
Stability of Vitamin Es in AB Red ([1]; 21-25° C., 24 days): 23.5 µg/mL
Stability of Vitamin Es in AB Red ([1]; 21-25° C., 25 days): 25.5 µg/mL
Stability of Vitamin Es in AB Red ([1]; 21-25° C., 26 days): 24.3 µg/mL
Stability of Vitamin Es in AB Red ([1]; 21-25° C., 29 days): 24.4 µg/mL
Stability of Vitamin Es in AB Red ([1]; 21-25° C., 30 days): 24.6 µg/mL
Stability of Vitamin Es in AB Red ([1]; 21-25° C., 60 days): 24.4 µg/mL
Stability of Vitamin Es in AB Red ([1]; 21-25° C., 90 days): 24.3 µg/mL
Stability of Vitamin Es in AB Red ([1]; 21-25° C., 120 days): 23.7 µg/mL
Stability of Vitamin Es in AB Red ([1]; 21-25° C., 150 days): 23.4 µg/mL
Stability of Vitamin Es in AB Red ([1]; 21-25° C., 180 days): 23.3 µg/mL
Stability of Vitamin Es in AB Red ([1]; 21-25° C., 210 days): 22.7 µg/mL
Stability of Vitamin Es in AB Red ([1]; 21-25° C., 240 days): 23.1 µg/mL
Stability of Vitamin Es in AB Red ([1]; 21-25° C., 270 days): 23.1 µg/mL
Stability of Vitamin Es in AB Red ([1]; 21-25° C., 300 days): 23.5 µg/mL
Stability of Vitamin Es in AB Red ([1]; 21-25° C., 330 days): 22.6 µg/mL
Stability of Vitamin Es in AB Red ([1]; 21-25° C., 390 days): 22.7 µg/mL
Stability of Vitamin Es in AB Red ([1]; 21-25° C., 420 days): 22.5 µg/mL
Stability of Vitamin Es in AB Red ([1]; 21-25° C., 450 days): 22.3 µg/mL
Stability of Vitamin Es in AB Red ([1]; 21-25° C., 480 days): 21.6 µg/mL
Stability of Vitamin Es in AB Red ([1]; 21-25° C., 510 days): 21.4 µg/mL
Stability of Vitamin Es in AB Red ([1]; 21-25° C., 540 days): 21.0 µg/mL
Stability of Vitamin Es in AB Red ([1]; 21-25° C., 570 days): 21.4 µg/mL
Stability in Powder Concentrate (content by LCMSMS) ([2]; day 0): 4.85 mg/g powder
Stability in Powder Concentrate (content by LCMSMS) ([2]; day 1): 4.89 mg/g powder
Stability in Powder Concentrate (content by LCMSMS) ([2]; day 2): 4.79 mg/g powder
Stability in Powder Concentrate (content by LCMSMS) ([2]; day 3): 4.69 mg/g powder
Stability in Powder Concentrate (content by LCMSMS) ([2]; day 5): 4.99 mg/g powder
Stability in Powder Concentrate (content by LCMSMS) ([2]; day 8): 4.69 mg/g powder
Stability in Powder Concentrate (content by LCMSMS) ([2]; day 9): 4.75 mg/g powder
Stability in Powder Concentrate (content by LCMSMS) ([2]; day 10): 4.77 mg/g powder
Stability in Powder Concentrate (content by LCMSMS) ([2]; day 11): 5.04 mg/g powder
Stability in Powder Concentrate (content by LCMSMS) ([2]; day 12): 5.01 mg/g powder
Stability in Powder Concentrate (content by LCMSMS) ([2]; day 15): 5.07 mg/g powder
Stability in Powder Concentrate (content by LCMSMS) ([2]; day 16): 4.96 mg/g powder
Stability in Powder Concentrate (content by LCMSMS) ([2]; day 17): 4.94 mg/g powder
Stability in Powder Concentrate (content by LCMSMS) ([2]; day 18): 4.77 mg/g powder
Stability in Powder Concentrate (content by LCMSMS) ([2]; day 19): 5.04 mg/g powder
Stability in Powder Concentrate (content by LCMSMS) ([2]; day 22): 4.94 mg/g powder
Stability in Powder Concentrate (content by LCMSMS) ([2]; day 23): 4.91 mg/g powder
Stability in Powder Concentrate (content by LCMSMS) ([2]; day 24): 5.00 mg/g powder
Stability in Powder Concentrate (content by LCMSMS) ([2]; day 25): 5.06 mg/g powder
Stability in Powder Concentrate (content by LCMSMS) ([2]; day 26): 4.84 mg/g powder
Stability in Powder Concentrate (content by LCMSMS) ([2]; day 29): 4.85 mg/g powder
Stability in Powder Concentrate (content by LCMSMS) ([2]; day 30): 4.83 mg/g powder
Stability in Powder Concentrate (content by LCMSMS) ([2]; day 60): 4.91 mg/g powder
Stability in Powder Concentrate (content by LCMSMS) ([2]; day 90): 4.96 mg/g powder
Stability in Powder Concentrate (content by LCMSMS) ([2]; day 120): 4.93 mg/g powder
Stability in Powder Concentrate (content by LCMSMS) ([2]; day 150): 4.69 mg/g powder
Stability in Powder Concentrate (content by LCMSMS) ([2]; day 180): 4.70 mg/g powder
Stability in Powder Concentrate (content by LCMSMS) ([2]; day 210): 4.84 mg/g powder
Stability in Powder Concentrate (content by LCMSMS) ([2]; day 240): 5.03 mg/g powder
Stability in Powder Concentrate (content by LCMSMS) ([2]; day 270): 4.78 mg/g powder
Stability in Powder Concentrate (content by LCMSMS) ([2]; day 300): 4.81 mg/g powder
Stability in Powder Concentrate (content by LCMSMS) ([2]; day 330): 4.81 mg/g powder
Stability in Powder Concentrate (content by LCMSMS) ([2]; day 360): 4.83 mg/g powder
Stability in Powder Concentrate (content by LCMSMS) ([2]; day 390): 4.91 mg/g powder
Stability in Powder Concentrate (content by LCMSMS) ([2]; day 420): 4.69 mg/g powder
Stability in Powder Concentrate (content by LCMSMS) ([2]; day 450): 5.00 mg/g powder
Stability in Powder Concentrate (content by LCMSMS) ([2]; day 480): 4.98 mg/g powder
Stability in Powder Concentrate (content by LCMSMS) ([2]; day 510): 5.02 mg/g powder
Stability in Powder Concentrate (content by LCMSMS) ([2]; day 540): 5.03 mg/g powder
Stability in Powder Concentrate (content by LCMSMS) ([2]; day 570): 4.72 mg/g powder
